Experiments:
[1] = system: explants of the human chorionic villous tree (trophoblast L-selectin); experiment: Binding of selectin ligand-coated beads to first-trimester villous explant cultures under shear stress; assay type: cell-based; conditions: neoglycolipid-coated beads; cytotrophoblast column remnants and syncytiotrophoblasts
Experimental: Neoglycolipids were prepared by reductive amination of dipalmitoyl phosphatidylacetaldehyde with the aminoethyl glycoside of either sLe^x or 6-sulfo sLe^x 30 and dissolved in methanol (1 μg/μl). Blue 4-μm polystyrene latex beads (Interfacial Dynamics Corporation) were washed three times with ethanol, then resuspended in this solvent (1.2×10^8 beads/200 μl). Twenty-five micrograms of glycolipid was added, and the mixture was evaporated under nitrogen. Coated beads were washed three times in 1% BSA/PBS, then incubated with 3% BSA/PBS (2 h, room temperature). The beads were resuspended in 1 ml of 1% BSA/culture medium. Control beads were coated with phosphatidyl choline or used without coating.
Forty-eight first-trimester villous explant cultures were established (4 from 12 placentas; 2 experiments). After 24 h, the culture medium was removed, and 200 μl of a suspension of 2.4×10^7 beads in medium was added. Six explants were incubated with either experimental or control beads. Six other explants were pre-incubated with DREG-56 (30 min), then washed three times with medium before adding 6-sulfo sLe^x-coated beads. The explants were placed inside an incubator on a platform shaker (1 h; 20 cycles/min). Afterwards, bead suspensions were aspirated and explants were fixed in 3.8% paraformaldehyde (1 h, room temperature), washed three times in PBS (4° C.), and examined with a stereomicroscope. […]

[2] = system: hatched mouse blastocysts; experiment: Binding of selectin ligand-coated beads to hatched mouse blastocysts under shear stress; assay type: cell-based; conditions: neoglycolipid-coated 4-μm polystyrene beads
L-selectin = conditions: compared with sLe^x; cited from earlier work

binding of ligand-coated beads to human villus explants / trophoblasts [1]	binding of ligand-coated beads to hatched mouse blastocysts [2]	Molecule	tightness of L-selectin binding, 6-sulfo sLe^x versus sLe^x (L-selectin)
in fewer numbers	bound	CC(=O)NC1C(O)CC(OC2C(O)C(CO)OC(OC3C(CO)OC(O)C(NC(C)=O)C3OC3OC(C)C(O)C(O)C3O)C2O)(C(=O)O)OC1C(O)C(O)CO (centres unmarked) [sLe^x, Siaα2→3Galβ1→4[Fucα1→3]GlcNAc]	–
bound	bound	Siaα2→3Galβ1→4[Fucα1→3][SO3→6]GlcNAc [6-sulfo sLe^x]	more tightly

— patent US7175990B2, “Method of determining endometrial receptivity” (The Regents of the University of California, priority 2002, dated 2007)
